In general, IC50 refers to the concentration at which inhibition is half-maximal.

One test has as its system MCF-7. Kind of test: MTT cytotoxicity assay, MCF-7 breast cancer cell line. Type of test: cell-based, human. To be noted: MCF-7, MTT. From the text: (§1) To evaluate the antitumor activity of the newly synthesized sulfonamide carbonic anhydrase inhibitors (compounds M3, M4, and M5), we employed cell line assays using 3-(4,5-dimethylthiazol-2-yl)-2,5-diphenyltetrazolium (MTT). Two cell types were utilized in this study: MCF-7, a breast cancer cell line, to assess the effects of the compounds on cancer cells, and MCF10A, a normal breast epithelial cell line, to evaluate the effects on non-cancerous cells. These cell lines were procured from the Iranian National Cell Bank at the Pasteur Institute. MCF-7 cells were cultured in RPMI-1640 medium, while MCF10A cells were cultured in DMEM: F12 medium. Both media were supplemented with 10% fetal bovine serum (FBS), followed by the addition of antibiotics (100 µg/ml streptomycin and 100 units/ml penicillin). The cells were maintained in a humidified atmosphere at 37°C with 5% carbon dioxide. For cell passaging, a trypsin/EDTA solution (Gibco) and phosphate-buffered saline (PBS) were utilized. Cell viability was assessed using MTT from Sigma-Aldrich. Each type of cell (MCF-7 and MCF10A) was cultured separately in 96-well plates (1.4 × 10^4 cells per well with 200 µl of fresh medium) after a full day had passed (temperature of 37°C in a 5% CO2 environment). The supernatant was removed, and MTT solution at a concentration of 200 µl was added to each well and then incubated for four hours at a temperature of 37°C. After the end of the incubation period and to dissolve the formazan crystals, 100 µl of dimethyl sulfoxide (DMSO) was added, and the plate was left in a shaker at a temperature of 37°C until it was confirmed that all the crystals had completely dissolved. An ELISA reader (Model Wave xs2, BioTek) was used to measure cell vitality by absorption at 570 nm and calculate the IC50 values.
(In general: Tetrazolium assays rely on reduction of a dye to a coloured formazan, in cell work by metabolically active cells.)

The next test concerns MCF10A. Kind of test: MTT cytotoxicity assay, MCF10A normal breast epithelial cell line. Type of test: cell-based. To be noted: MCF10A normal cells, read-out: MCF10A IC50 (µM) ± SD.
Text: as §1

Setting [1] is: Homo sapiens, MCF7, read-out: MCF-7 IC50 (µM) ± SD.

SMILES strings stand for the structures. Where two headings read alike, the source gives them in different places.

As to `NS(=O)(=O)c1ccc(Nc2csc(N=Cc3ccc(O)cc3)n2)cc1` (stereo in doubt) [Compound M3, (Z)-4-((2-((4-hydroxybenzylidene)amino)thiazol-4-yl)amino) benzene sulfonamide], the IC50 in the test with MCF-7 (setting [1]) stood at 87.7 ± 2.16 µM; in the test with MCF10A (Homo sapiens, MCF-10A) it was 135 ± 4.19 µM.

With `N.N.[Cl][Pt][Cl]` [Cisplatin, reference compound], the IC50 in the test with MCF-7 (read-out: MCF-7 IC50 (µM) ± SD) amounted to 15.1 ± 2.25 µM; in the test with MCF10A, 13.6 ± 3.45 µM.

On to `CN(C)c1ccc(/C=N/c2nc(Nc3ccc(S(N)(=O)=O)cc3)cs2)cc1` [Compound M4], for which the IC50 with MCF-7 (Homo sapiens, MCF7, read-out: IC50 against MCF-7 cells) worked out at 77.4 µg/mL; in the test on MCF-7 (setting [1]), 77.4 ± 3.31 µM; with MCF10A (Homo sapiens, MCF-10A), 52.5 ± 3.31 µM.

The record behind these values is article PMC10994617, “In silico study, synthesis, and antineoplastic evaluation of thiazole-based sulfonamide derivatives and their silver complexes with expected carbonic anhydrase inhibitory activity” (Journal of Medicine and Life, 2023).
